# Test results: patent US7083983B2, “Inhibitors of the interaction between P53 and MDM2” (Cancer Research Campaign Technology Limited, priority 1996, dated 2006)
# Where no end group is shown, it is not given here.
# Tests used:
# [1] = tested on: T22 cells stably transfected with pRGC ΔFosLacz, a p53 responsive β-galactosidase reporter; assay: p53 responsive β-galactosidase reporter after microinjection into T22 cells; type: cell-based, mouse; settings: low level p53 and mdm2, 24 hours
# From the text: (§3) Antibodies or DNA encoding the described binding elements may be microinjected into Vrn.6 cells, a transformed rat thyroid epithelial cell line and T22 cells, a mouse prostrate derived cell line both cell lines being stably transfected with pRGC ΔFosLacz, a p53 responsive β-galactosidase reporter. […] Vrn.6 tolerate high levels of wild type p53 and overexpress MDM2 at a protein level. T22 cells typically contain low levels of p53 and mdm2.
# (§4) For microinjection, cells may be seeded into tissue culture dishes and grown to 60–70% confluence. Microinjection may be performed using an Eppendorfer microinjection system (Microinjector 5242, Micromanipulator 5170) mounted to an Axiovert light microscope (Zeiss) having a heated stage.
# (§5) Purified mouse monoclonal antibodies 3G5 and 4B2 may be injected intranuclearly and cytoplasmicly in PBS at a concentration of 1.3 mg/ml. Plasmid DNA encoding for TIP 12/1, TIP wt and Trx may be injected intronuclearly in water at a concentration of 0.25 mg 7 ml. Following microinjection, fresh medium may be added to the cell cultures and the cultures further incubated for 24 hours.
# (§6) To detect β-galactosidase activity, cells may be washed with PBS and fixed with 2% formaldehyde, /0.2% glutaraldehyde in PBS for 5 minutes on ice. […]
# [2] = tested on: Vrn.6 cells stably transfected with pRGC ΔFosLacz, a p53 responsive β-galactosidase reporter; assay: p53 responsive β-galactosidase reporter after microinjection into Vrn.6 cells; type: cell-based, rat; settings: Vrn.6 cells having overexpressed MDM2; injected intranuclearly; 24 hours
# From the text: as §3, §4, §5, §6
# [3] = tested on: MCF-7 cells, pRGCΔFosLacZ reporter; assay: transient transfection, p53 reporter induction in MCF-7 cells; type: cell-based; settings: transfected plasmid DNA, 48 hours after transfection
# Procedure: (§1) The OSA cell line contains a highly elevated mdm2 level due to gene amplification (Florence et al., 1994). The U2-OS cell line has no gene amplification for mdm2 but has elevated levels of dmd2-mRNA (Florence et al. 1994). The MCF-7 cell line contains heterogenously expressed low levels of wild type p53 and no reported mdm2 elevation.
# (§2) For transient transfection and reporter induction, cells are seeded into 6 well plates at 1.5×10^6 cell per well. They are grown to a density of 80% confluence and transfected using different Lipophilic reagents such Lipofectin and Lipofectamin from Promega or Dosper and Dotap from Boehringer. […] Two to four hours after transfection, complete medium is added. Forty-eight hours after transfection β-galactosidase activity is measured using […] (Boehringer) as a substrate. Cells are scraped into PBS and centrifuged. Pellets from each well are dissolved in 50 μl of Reporter Lysis buffer (Promega) and incubated on ice for 15 minutes. Soluble Lysates are incubated with CPRG in 100 mM phosphate buffer, pH 7.0. Optical Density at 595 nm is measured 1 to 24 hours later.
# [4] = tested on: OSA cells, pRGCΔFosLacZ reporter; assay: transient transfection, p53 reporter induction in OSA cells; type: cell-based, human; settings: highly elevated mdm2, transfected plasmid DNA, 48 hours after transfection
# Procedure: as §1, §2
# [5] = tested on: U2-OS cells, pRGCΔFosLacZ reporter; assay: transient transfection, p53 reporter induction in U2-OS cells; type: cell-based; settings: transfected plasmid DNA, 48 hours after transfection
# Procedure: as §1, §2
# [6] = tested on: GST-hdm2, MBP-hdm2 or TRX-hdm2; assay: solution phase phage ELISA with hdm2 fusion proteins; type: binding, human; settings: phages preincubated in solution with GST-hdm2, MBP-hdm2 or TRX-hdm2
# GST-hdm2, MBP-hdm2 or TRX-hdm2, sequence (Q00987 1-188 limits assumed): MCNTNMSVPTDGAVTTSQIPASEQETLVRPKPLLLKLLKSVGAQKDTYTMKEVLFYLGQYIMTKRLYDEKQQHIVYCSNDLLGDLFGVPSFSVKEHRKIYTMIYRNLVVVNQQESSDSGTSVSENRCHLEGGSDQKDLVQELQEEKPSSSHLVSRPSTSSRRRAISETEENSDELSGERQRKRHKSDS
# Procedure: GST-, MBP-, TRX-hdm2 or baculovirus produced mdm2 (Sf9 cell extract) diluted in PBST-M are reacted in solution with hdm2- or GST-binding phage overnight at 4° C. Simultaneously, ELISA plates are coated with 100 μl Rabbit anti-mouse antibodies (DAKO, Z0259) 1:1000 in 0.1 M NaHCO3, pH 9.6. The plates are blocked as usual and incubated with monoclonal anti-mdm2 antibodies (hybridoma supernatant 1:5 diluted in PBST-M) for one hour. For the titration ELISA, purified SMP14 (8 μg/ml in PBS) is used to coat the plate directly. In either case, the pre-incubated phage-hdm2 samples are transfered to the coated and blocked plate and incubated for two hours at room temperature. Bound phages are detected as described.
# For these experiment clones BB2/BB11 (GST binding control phage) and BB3/BB10 (hdm2 phage) are chosen. Phages are preincubated in solution with GST-hdm2, MBP-hdm2 or TRX-hdm2 and the phage-hdm2 complexes are transfered to wells which contain different monoclonal anti-mdm2 antibodies bound to the solid phase via anti-mouse antibodies. Bound phages are detected. […] All three anti-mdm2 antibodies used (SMP 14, 4B2, 3G5) are able to bind to hdm2 complexed with GST-phage. Antibody SMP14 is commercially available and described in Picksley et al., Oncogene 9, 2523–2529 (1994) incorporated by reference above. […] Phage-hdm2 complexes are pulled down by solid phase SMP14 and bound phages are detected. […]
substance,measurement,setting,value
Trx: negative control binding element comprising thioredoxin without a peptide insert [reference compound],β-galactosidase response (blue stained cells) of p53 reporter,[1],No response
same,β-galactosidase response (blue stained cells) of p53 reporter,[2],not a positive response
"TIP 12/1: binding element: E. coli thioredoxin presenting the peptide insert of clone 12/1 in its active site, delivered as encoding plasmid DNA (MPRFMDYWEGLN; not fully specified; printed as M-P-R-F-M-D-Y-W-E-G-L-N)",β-galactosidase response (blue stained cells) of p53 reporter,[1],strong positive response
same,induction of the p53 reporter (β-galactosidase activity),[3],most induction
same,induction of the p53 reporter (β-galactosidase activity),[4],Lower induction
same,induction of the p53 reporter (β-galactosidase activity),[5],most induction
PAFSRFWSADLSAGAH [BB3],binding of phage to hdm2 fusion proteins,[6],recognizes all three hdm2 fusion proteins
